Data published in US8951999B2, “Compounds” (Orexo AB, priority 2009, dated 2015).

biological target: T1, recombinant human mPGES-1 (Homo sapiens, UniProt O14684); assay: Assay A: mPGES-1 enzyme assay (HTRF detection of PGE2); type: biochemical; settings: biological assay A (compounds 1-41, 54, 55, 62, 73); PGE2 formation from PGH2, HTRF; read-out: mPGES-1 inhibitory effect IC50
T1 sequence (O14684 1-152): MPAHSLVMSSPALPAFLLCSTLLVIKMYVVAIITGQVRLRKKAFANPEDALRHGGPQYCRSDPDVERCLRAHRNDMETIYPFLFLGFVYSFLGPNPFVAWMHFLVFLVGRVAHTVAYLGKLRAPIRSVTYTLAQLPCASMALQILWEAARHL
Source text: Assay A: mPGES-1 Enzyme Assay
The basis of the assay used is to measure the inhibition of microsomal prostaglandin E2 synthase-1 (mPGES-1) dependent prostaglandin (PG) E2 formation from PGH2 by different compounds. Thus, the formation of PGE2 is used as signal and a lowering of this signal can be interpreted as inhibition of mPGES-1. Similar assays to measure inhibition of mPGES-1 have previously been described in the literature.
• Glutathione (Sigma, G-4251) • Freeze culture in Rosetta E coli expression strain. • LB growth media with Ampillicillin (Amp) final concentration in culture 50 μg/mL • Chloroamphenicol stock 34 mg/mL (chloro) final concentration in culture 34 μg/mL • Sterile growth flasks for 500 mL-1 liter cultures • 0.1 M KPi buffer pH 7.4 • 9.25% HCl • PGH2 (0.25 mM) • Fe (II) Cl2 tetrahydrate, 99% (Sigma, 220229) • 384-well plate with compounds • 96-well plate, polypropylene (Thermo fast 96 skirted VWR) • 384-well plate polypropylene PCR plate (Greiner 785201) • Greiner 384-well plate pp (In vitro cat. no. 781280) • Adhesive sealing film for 96-well plates (Sigma-Aldrich) • Aluminium foil (PCR foil, 310-0030-127-471 from Labora) • PBS (GIBCO 14040) • Prostaglandin E2 Assay (Cisbio, cat. no. 62P2APEC) • Biomek FX robot (Beckman Coulter) • Biomek NX robot (Beckman Coulter) • Multidrop; micro or combi (ThermoLabsystems) • Plate reader: Safire2 (Tecan)
Microsomes from Rosetta E. coli bacteria expressing recombinant human mPGES-1 can be derived as described below:
Inoculate 5 mL LB with Amp and Chloro with bacteria from freeze culture. Incubate over night at 37° C. with 200 rpm. Thereafter, inoculate 500-800 mL LB containing Amp and Chloro with the 5 mL on culture and grow to OD640 of 0.6-0.8. Chill the culture to +4° C. before induction. Induce the culture with IPTG at a final concentration of 400 μM. Express the protein at room temp 18-23° C. with 200 rpm shaking over night.
The following steps can be performed on the following day: • 1. Spin down the cells in 250 mL centrifuge flasks for 15 min at 7000 rpm • 2. Dissolve the pellet from 250 mL culture in 12.5 mL homogenization buffer • 3. Disintegrate the cells by sonication, 4×10 seconds at 35% amplitude • 4. Add 2.5 mL MgCl2 (100 mM) and DNase 12.5 μL (0.8 mg/mL) and incubate on ice for 30 min • 5. Spin down the bacteria debris and save the supernatant, 7000 rpm for 15 min • 6. Isolate the protein containing membranes in the supernatant by ultracentrifugation 45000×g for 1 hour. • 7. Discard the supernatant and dissolve the pellet in 20 mM KPi buffer and aliquot the enzyme and store aliquots at −80° C.
Before each experiment is performed an aliquot of the enzyme is thawed and it can then be dissolved in 0.1 M KPi pH 7.4 buffer containing 2.5 mM GSH. 50 μL of this enzyme solution is subsequently dispensed in a 384-well plate at room temperature. 0.5 μL of the inhibitor dissolved in DMSO is thereafter added to each well and incubated for 25 minutes at room temperature. Subsequently, 2 μL of PGH2 dissolved in an appropriate solvent is added to each well and after one minute at room temperature, the acidified stop solution containing FeCl2 is added. 4 μL of the total volume is transferred to a separate plate and diluted 750-fold in two separate steps before quantification of PGE2.
In order to quantitate the amount of PGE2 that has been formed, a homogenous time resolved fluorescent (HTRF) detection of PGE2 can be performed by the use of a commercially available kit from CisBio essentially according to the manufacturer's protocol. […]

Row | SMILES | IC50
1 | CC(C)(C)C(=O)NCc1ccc(Cl)c(C(=O)Nc2ccc(OCC(F)F)c(C(=O)NCC3CC3)c2)c1 [Example 13] | 13 nM
2 | COc1ccc(NC(=O)c2cc(CNS(=O)(=O)C3CC3)ccc2Cl)cc1C(=O)Nc1ccc(Br)cc1 [Example 36, N-[4-Methoxy-3-(4-bromophenyl)aminocarbonyl-phenyl]-2-chloro-5-cyclopropylsulphonylaminomethyl-benzamide] | 6 nM
3 | COc1ccc(NC(=O)c2cc(CNC(=O)C(C)(C)C)ccc2Cl)cc1C(=O)Nc1cc(C(F)(F)F)ccn1 [Example 8, N-[4-Methoxy-3-(4-trifluoromethyl-pyridin-2-yl)aminocarbonyl-phenyl]-2-chloro-5-(tert-butylcarbonylamino)methyl-benzamide] | 7 nM
4 | Cc1ccc(NC(=O)c2cc(CNC(=O)C(C)(C)C)ccc2Cl)cc1C(=O)Nc1ccc(Br)cc1 [Example 55, N-[4-Methyl-3-(4-bromophenyl)aminocarbonyl-phenyl]-2-chloro-5-(tert-butylcarbonylamino)methyl-benzamide] | 59 nM
5 | CC(C)(C)C(=O)NCc1ccc(Cl)c(C(=O)Nc2ccc(F)c(C(=O)Nc3ccc(Br)cc3)c2F)c1 [Example 39] | 18 nM
6 | COc1ccc(NC(=O)c2cc(CNC(=O)C(C)(C)C)ccc2Cl)cc1C(=O)NC1CCCCC1 [Example 17] | 16 nM
7 | CC(C)(C)C(=O)NCc1ccc(Cl)c(C(=O)Nc2ccc(OCC(F)F)c(C(=O)NCC#Cc3ccccc3)c2)c1 [Example 40] | 5 nM
8 | COc1ccc(NC(=O)c2cc(CNC(=O)C3(O)CC3)ccc2Cl)cc1C(=O)Nc1ccc(Br)cc1 [Example 28] | 4 nM
9 | CC(C)(C)C(=O)NCc1ccc(Cl)c(C(=O)Nc2ccc(OCC(F)(F)F)c(C(=O)N[C@H]3CC[C@H](C(F)(F)F)CC3)c2)c1 [Example 11] | 4 nM

Further lines, results first:

Row | IC50 | SMILES
10 | 2 nM | COc1ccc(NC(=O)c2cc(CNC(=O)C(C)(N)C(F)(F)F)ccc2Cl)cc1C(=O)Nc1ccc(Br)cc1 (stereo not shown) [Example 33]
11 | 2 nM | CC(C)(C)C(=O)NCc1ccc(Cl)c(C(=O)Nc2ccc(OCC(F)F)c(C(=O)N[C@H]3CC[C@H](C(F)(F)F)CC3)c2)c1 [Example 5, N-[4-(2,2-Difluoroethyl)oxy-3-[trans-(4-trifluoromethyl-cyclohexyl)amino]carbonyl-phenyl]-2-chloro-5-(tert-butylcarbonylamino)methyl-benzamide]
12 | 2 nM | COc1ccc(NC(=O)c2cc(CNC(=O)C3(C)CCCCC3)ccc2Cl)cc1C(=O)Nc1ccc(Br)cc1 [Example 27]
13 | 2 nM | COc1ccc(NC(=O)c2cc(CNC(=O)C(C)C(F)(F)F)ccc2Cl)cc1C(=O)Nc1ccc(Br)cc1 (stereo not shown) [Example 32]
14 | 2 nM | COc1ccc(NC(=O)c2cc(CNC(=O)C(C)(C)C)ccc2Cl)cc1C(=O)N[C@H]1CC[C@H](C(C)(C)C)CC1 [Example 18]
15 | 4 nM | CC(C)(C)C(=O)NCc1ccc(Cl)c(C(=O)Nc2ccc(OCC(F)F)c(C(=O)NCC3CC3(C)C)c2)c1 (stereo not shown) [Example 14]
16 | 1 nM | COc1ccc(NC(=O)c2cc(CNC(=O)C(C)(F)F)ccc2Cl)cc1C(=O)Nc1ccc(Br)cc1 [Example 30]
17 | 1 nM | CC1CCN(c2ccc(NC(=O)c3cc(CNC(=O)C(C)(C)C)ccc3Cl)cc2C(=O)Nc2ccc(Br)cc2)CC1 [Example 37, N-[4-(4-Methyl-piperidin-1-yl)-3-(4-bromophenyl)aminocarbonyl-phenyl]-2-chloro-5-(tert-butylcarbonylamino)methyl-benzamide]
18 | 4 nM | CC(C)(C)C(=O)NCc1ccc(Cl)c(C(=O)Nc2ccc(OCC3CC3)c(C(=O)N[C@H]3CC[C@H](C(F)(F)F)CC3)c2)c1 [Example 38, N-[4-(Cyclopropylmethyloxy)-3-[trans-(4-trifluoromethyl-cyclohexyl)amino]carbonyl-phenyl]-2-chloro-5-(tert-butylcarbonylamino)methyl-benzamide]
19 | 4 nM | CC(C)(C)C(=O)NCc1ccc(Cl)c(C(=O)Nc2ccc(F)c(C(=O)Nc3ccc(Br)cc3)c2)c1 [Example 2, N-[4-Fluoro-3-(4-bromophenyl)aminocarbonyl-phenyl]-2-chloro-5-(tert-butylcarbonylamino)methyl-benzamide]
